Patent publication US20100003217A1, “Compounds and Pharmaceutical Compositions for the Treatment of Viral Infections” (priority 2008, published 2010)
Values joined by “and” are separate entries in the source; they are usually repeats but may differ in a detail not shown here. Identical values can stand only once.

Columns and labels:
[1] = tested on: monkey primary hepatocytes; experiment: Metabolic disposition of [^14C]-Compound 1 and [^14C]-2′-C-methyl guanosine in monkey primary hepatocytes (incubation medium, cellular extracts, nucleotide levels); assay type: in vitro ADME, Cynomolgus monkey; conditions: for decrease in Compound 1 medium levels: monkey hepatocytes; for decrease in Compound 1 medium levels / % Residual [^14C]-Compound 1 in incubation medium: 10 μM
In short: (§1)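 Rat, monkey or human primary hepatocytes on collagen I plates (1.6 million cells/mL) were incubated at 37° C with 1 or 10 μM C-8 [^14C]-labelled compound or 2′-C-methyl guanosine for 1, 4, 8 and 24 hours. Medium and 70% methanol cell extracts were analysed by LSC and radio-HPLC. Nucleotides were identified by alkaline phosphatase treatment and retention-time matching to standards.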

rat primary hepatocytes = experiment: Metabolic disposition of [^14C]-Compound 1 and [^14C]-2′-C-methyl guanosine in rat primary hepatocytes (incubation medium, cellular extracts, nucleotide levels); assay type: in vitro ADME, Sprague Dawley rat
In short: as §1

CC(C)(CO)C(=O)SCCOP(=O)(NCc1ccccc1)OC[C@H]1O[C@@H](n2cnc3c(=O)[nH]c(N)nc32)[C@](C)(O)[C@@H]1O (mixture of isomers) [Compound 1, 3-hydroxy-2,2-dimethyl-thiopropionic acid S-(2-{[(2R,3R,4R,5R)-5-(2-amino-6-oxo-1,6-dihydro-purin-9-yl)-3,4-dihydroxy-4-methyl-tetrahydro-furan-2-ylmethoxy]-benzylamino-phosphoryloxy}-ethyl) ester]
metabolites observed in cellular extracts (% of total radioactivity) ([1]; monkey hepatocytes (Cy230, Cy234), 10 μM [^14C]-Compound 1, 8 h): BLD | metabolites observed in cellular extracts (% of total radioactivity) ([1]; monkey hepatocytes (Cy230, Cy234), 10 μM [^14C]-Compound 1, 24 h): undetected and BLD | metabolites observed in cellular extracts (% of total radioactivity) ([1]; monkey hepatocytes (Cy234), 10 μM [^14C]-Compound 1, 4 h): 3.03% | decrease in Compound 1 medium levels ([1]; 8 hours): about 40% | decrease in Compound 1 medium levels ([1]; 24 hours): 77% | % Residual [^14C]-Compound 1 in incubation medium ([1]; monkey primary hepatocytes (n=2), 0 h): 97% and 91% | % Residual [^14C]-Compound 1 in incubation medium ([1]; monkey primary hepatocytes (n=2), 1 h): 95% and 67% | % Residual [^14C]-Compound 1 in incubation medium ([1]; monkey primary hepatocytes (n=2), 8 h): 63% and 61% | % Residual [^14C]-Compound 1 in incubation medium ([1]; monkey primary hepatocytes (n=2), 24 h): 16% and 31% | % Residual [^14C]-Compound 1 in incubation medium ([1]; monkey primary hepatocytes, 4 h): 66% | metabolites observed in cellular extracts (% of total radioactivity) (rat primary hepatocytes; rat hepatocytes (Rs448, Rs458), 10 μM [^14C]-Compound 1, 1 h, listed as Compd 1): 15.0% and 19.7% | metabolites observed in cellular extracts (% of total radioactivity) (rat primary hepatocytes; rat hepatocytes (Rs448, Rs458), 10 μM [^14C]-Compound 1, 4 h, listed as Compd 1): 3.86% and 4.02% | metabolites observed in cellular extracts (% of total radioactivity) (rat primary hepatocytes; rat hepatocytes (Rs448, Rs458), 10 μM [^14C]-Compound 1, 8 h, listed as Compd 1): 1.20% and 0.95% | metabolites observed in cellular extracts (% of total radioactivity) (rat primary hepatocytes; rat hepatocytes (Rs448, Rs458), 10 μM [^14C]-Compound 1, 24 h): undetected | metabolites observed in cellular extracts (% of total radioactivity) (rat primary hepatocytes; rat hepatocytes (Rs448, Rs458), 10 μM [^14C]-Compound 1, 24 h, listed as Compd 1): BLD | metabolites observed in cellular extracts (% of total radioactivity) (rat primary hepatocytes; rat hepatocytes (Rs458), 1 μM [^14C]-Compound 1, 1 h): 12.3% | metabolites observed in cellular extracts (% of total radioactivity) (rat primary hepatocytes; rat hepatocytes (Rs458), 1 μM [^14C]-Compound 1, 8 h): BLD | metabolites observed in cellular extracts (% of total radioactivity) (rat primary hepatocytes; rat hepatocytes (Rs458), 1 μM [^14C]-Compound 1, 24 h): BLD | reduction in Compound 1 medium levels (rat primary hepatocytes; rat hepatocytes, 1 μM, 8 hours): approximately 79% | decrease in Compound 1 medium levels (rat primary hepatocytes; rat hepatocytes, 10 μM, 4 hours): ~50% | % Residual [^14C]-Compound 1 in incubation medium (rat primary hepatocytes; rat primary hepatocytes (n=1), 1 μM, 0 h): 99% | % Residual [^14C]-Compound 1 in incubation medium (rat primary hepatocytes; rat primary hepatocytes (n=1), 1 μM, 1 h): 89% | % Residual [^14C]-Compound 1 in incubation medium (rat primary hepatocytes; rat primary hepatocytes (n=1), 1 μM, 8 h): 21% | % Residual [^14C]-Compound 1 in incubation medium (rat primary hepatocytes; rat primary hepatocytes (n=1), 1 μM, 24 h): 0% | % Residual [^14C]-Compound 1 in incubation medium (rat primary hepatocytes; rat primary hepatocytes (n=2), 10 μM, 0 h): 95% and 97% | % Residual [^14C]-Compound 1 in incubation medium (rat primary hepatocytes; rat primary hepatocytes (n=2), 10 μM, 1 h): 91% and 93% | % Residual [^14C]-Compound 1 in incubation medium (rat primary hepatocytes; rat primary hepatocytes (n=2), 10 μM, 4 h): 48% and 55% | % Residual [^14C]-Compound 1 in incubation medium (rat primary hepatocytes; rat primary hepatocytes (n=2), 10 μM, 8 h): 18% and 32% | % Residual [^14C]-Compound 1 in incubation medium (rat primary hepatocytes; rat primary hepatocytes (n=2), 10 μM, 24 h): 0%
